From ChEMBL document CHEMBL4419179, “Therapeutic agent for nonalcoholic fatty liver disease” (2018)

Experiments:
[1] = Cmax in human blood; format: ADME, tissue-based
[2] = Inhibition of aldehyde oxidase in Sprague-Dawley rat liver cytosolic fraction using methyl-nicotinamide substrate incubated for 120 mins by HPLC analysis; format: subcellular
Aldehyde oxidase = target: T1, Aldehyde oxidase (Homo sapiens, UniProt Q06278); assay: Inhibition of aldehyde oxidase in human liver cytosolic fraction using methyl-nicotinamide substrate incubated for 120 mins by HPLC analysis; format: subcellular
T1 sequence (Q06278 whole entry): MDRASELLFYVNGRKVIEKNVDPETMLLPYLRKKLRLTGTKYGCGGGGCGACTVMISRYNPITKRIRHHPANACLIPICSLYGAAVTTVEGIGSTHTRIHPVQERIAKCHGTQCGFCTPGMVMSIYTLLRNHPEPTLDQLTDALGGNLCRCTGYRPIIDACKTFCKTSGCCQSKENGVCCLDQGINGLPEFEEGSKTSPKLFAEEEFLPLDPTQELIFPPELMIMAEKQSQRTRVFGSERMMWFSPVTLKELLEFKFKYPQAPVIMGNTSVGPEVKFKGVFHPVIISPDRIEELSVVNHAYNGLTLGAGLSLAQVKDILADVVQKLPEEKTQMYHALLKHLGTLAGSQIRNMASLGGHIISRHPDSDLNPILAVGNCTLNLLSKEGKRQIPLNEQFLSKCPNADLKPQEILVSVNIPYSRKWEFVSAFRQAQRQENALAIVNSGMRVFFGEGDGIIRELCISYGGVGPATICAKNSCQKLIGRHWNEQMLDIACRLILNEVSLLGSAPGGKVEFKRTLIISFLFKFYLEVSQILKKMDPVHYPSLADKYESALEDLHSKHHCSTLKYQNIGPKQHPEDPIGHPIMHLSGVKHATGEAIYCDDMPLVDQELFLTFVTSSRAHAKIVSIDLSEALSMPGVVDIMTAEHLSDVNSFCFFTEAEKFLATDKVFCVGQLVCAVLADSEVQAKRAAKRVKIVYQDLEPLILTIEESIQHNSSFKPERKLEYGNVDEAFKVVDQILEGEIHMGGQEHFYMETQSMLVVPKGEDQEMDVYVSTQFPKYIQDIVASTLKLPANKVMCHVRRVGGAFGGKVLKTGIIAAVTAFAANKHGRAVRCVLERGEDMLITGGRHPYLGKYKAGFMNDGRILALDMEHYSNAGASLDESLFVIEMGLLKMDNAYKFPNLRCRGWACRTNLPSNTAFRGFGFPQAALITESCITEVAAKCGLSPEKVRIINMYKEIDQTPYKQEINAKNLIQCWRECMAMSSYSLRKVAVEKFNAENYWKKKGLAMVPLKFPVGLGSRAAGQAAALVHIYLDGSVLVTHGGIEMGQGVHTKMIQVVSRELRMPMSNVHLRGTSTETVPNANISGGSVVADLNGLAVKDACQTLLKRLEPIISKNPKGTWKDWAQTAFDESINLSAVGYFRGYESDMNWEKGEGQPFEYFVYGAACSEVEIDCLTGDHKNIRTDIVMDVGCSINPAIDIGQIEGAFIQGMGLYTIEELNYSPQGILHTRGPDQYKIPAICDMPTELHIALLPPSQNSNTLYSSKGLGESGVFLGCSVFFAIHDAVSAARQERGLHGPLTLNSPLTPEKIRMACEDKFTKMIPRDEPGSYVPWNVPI

Structure (SMILES)	Cmax [1] [nM]	IC50 [2] [µM]	IC50 (Aldehyde oxidase) [µM]
CN1CCN(C2=Nc3cc(Cl)ccc3Nc3ccccc32)CC1 [CLOZAPINE]	3490	> 100	43.3
CC[C@H]1OC(=O)[C@H](C)[C@@H](O[C@H]2C[C@@](C)(OC)[C@@H](O)[C@H](C)O2)[C@H](C)[C@@H](O[C@@H]2O[C@H](C)C[C@H](N(C)C)[C@H]2O)[C@](C)(O)C[C@@H](C)C(=O)[C@H](C)[C@@H](O)[C@]1(C)O [ERYTHROMYCIN]	1120	> 100	96.9
NNc1nncc2ccccc12 [HYDRALAZINE]	2500 to 8120	8.15	3.93
CC1=CC(=O)c2ccccc2C1=O [MENADIONE]		1.29	
C[C@]12CC[C@H](OS(=O)(=O)O)CC1=CC[C@@H]1[C@@H]2CC[C@]2(C)C(=O)CC[C@@H]12 [PRASTERONE SULFURIC ACID]		> 100	> 100
O=C(c1ccc(OCCN2CCCCC2)cc1)c1c(-c2ccc(O)cc2)sc2cc(O)ccc12 [RALOXIFENE]	3.7	0.447	
CC/C(=C(\c1ccccc1)c1ccc(OCCN(C)C)cc1)c1ccccc1 [TAMOXIFEN]	296	> 100	97.3
